This note sets out measurements from patent US20120058133A1, “INHIBITION OF TRNA SYNTHETASES AND THERAPEUTIC APPLICATIONS THEREOF” (President and Fellows of Harvard College, priority 2009, published 2012).

Experiment [1] deals with Xbp-1 splicing. In words: ER stress / unfolded protein response (Xbp-1 splicing) in T cells. The experiment is classed as cell-based, mouse. The note with it: for Xbp-1 splicing: TCR activation 4 hours, 1 μg/ml tunicamycin, 10 nM HF. Here is the method:
(§1) FIG. 5. […] FIG. 5A depicts western blot and Xbp1 splicing analysis of CD4^+ CD25^− T cells left unstimulated, or activated through the TCR for 4 hours in complete medium (complete—200 μM Cys/100 μM Met), medium lacking Cys/Met (−Cys/Met) or complete medium containing 1 μg/ml tunicamycin, 10 nM HF or 10 nM MAZ1310. Western blotting was performed on whole cell extracts with the indicated antibodies. Xbp-1 splicing assay was performed on cDNA synthesized from T cell cultures.

Experiment [2] deals with amino acid starvation response pathway. In words: Amino acid starvation response (eIF2α phosphorylation, ATF4, AAR genes) in T cells. As to conditions: for eIF2α phosphorylation and ATF4 expression: 1 μg/ml tunicamycin. The format is cell-based, mouse. Here is the method:
FIG. 4C is a graph depicting results of quantitative real-time PCR performed on cDNA generated from unstimulated naïve T cells or those activated for 4 hours in the presence of 10 nM MAZ1310 or 10 nM HF. Asns, Gpt2 or eIF4Ebp1 mRNA expression was normalized to Hprt levels and data are presented as mean values ±SD in duplicate samples.
FIG. 4D depicts western blot analysis of purified CD4^+ CD25^− T cells either unstimulated, or TCR-activated without exogenous cytokines in the presence of DMSO, 40 nM MAZ1310 or titrating concentrations of HF (1.25-40 nM). Whole cell lysates were prepared 4 hours-post TCR activation and immunoblotting was performed with the indicated antibodies. ATF4 protein is indicated by arrowhead. NS—non-specific band.
FIG. 4E depicts western blot analysis of purified CD4^+ CD25^− T cells activated through the TCR for the indicated times without exogenous cytokines in the presence of either 10 nM MAZ1310 or 10 nM HF as indicated. Whole cell lysates were prepared during the timecourse and immunoblotting was performed.
FIG. 4F depicts western blot analysis of CD4^+ CD25^− T cells either left unstimulated or were TCR-activated in the absence or presence of the indicated polarizing cytokine conditions and 10 nM MAZ1310 or 10 nM HF as indicated. Whole cell lysates were generated 4 hours after activation and immunoblotting was performed. Microarray data were generated from three independent experiments and all other data are representative of at least two similar experiments.
as §1
T cells were activated as described above, collected at the indicated times and pellets were flash-frozen in liquid nitrogen. Total RNA was obtained by RNeasy (Quiagen—Valencia, Calif.) column purification per manufacturers instructions. RORγt expression was determined after reverse transcription using the message sensor kit (Ambion—Austin, Tex.) per the manufacturer's instructions and taqman primers and probe as described elsewhere (Ivanov et al., Cell 126:1121, 2006). Sybrgreen quantitative real-time PCR was performed on T cell RNA samples following reverse transcription via SuperScript II first-strand cDNA synthesis kit (Invitrogen—Carlsbad, Calif.). All PCR data was collected on an iCycler thermal cycler (Biorad—Hercules, Calif.). Primer sequences used for detecting stress response genes are listed below.
Whole cell lysates were generated from T cells activated for the indicated times. For STAT3 and Smad2/3 western blots cells were harvested, washed in PBS and lysed in 50 mM Tris, pH 7.4, 0.1% SDS, 1% Triton-X 100, 140 mM NaCl, 1 mM EDTA, 1 mM EGTA supplemented with protease inhibitors tablets (Roche—Germany), 1 mM NaF and 1 mM Na3VO4. For eIF2α and ATF4 western blots, cells were harvested as above and lysed in 50 mM Tris, pH 7.4, 2% SDS, 20% glycerol and 2 mM EDTA supplemented with protease and phosphatase inhibitors as above. All lysates were cleared via centrifugation and 15-30 μg of protein was resolved by SDS-PAGE. Protein was transferred to nitrocellulose membranes, blocked and blotted using specific antibodies. Antibodies used for western blot analysis were anti-phospho-Smad2, anti-STAT3 (pY705), anti-STAT3, anti-eIF2α^ps51, anti-eIF2α (all from cell signaling technology—Danvers, Mass.). Anti-ATF4/CREB2 and anti-β-actin were purchased from Santa Cruz Biotechnology (Santa Cruz, Calif.). HRP-conjugated secondary antibodies were all purchased from Sigma, with the exception of HRP-conjugated anti-armenian hamster antibody (Jackson Immunoresearch—West Grove, Pa.). […]

[3] abbreviates: TCR activation 4 hours, 10 nM HF.

As to tunicamycin, in experiment [1], the Xbp-1 splicing result is reported as “together with Xbp-1 splicing”. For the same molecule, the “eIF2α phosphorylation and ATF4 expression” value in experiment [2] (setting [3]) is “induced eIF2α phosphorylation and ATF4 expression”.
For the molecule `O=C(CC1NCCCC1O)Cn1cnc2cc(Br)c(Cl)cc2c1=O` (racemic) [HF, halofuginone], in experiment [1], the “expression of hallmark ER stress response genes” value is “did not induce” and the Xbp-1 splicing entry is listed as “without promoting Xbp-1 splicing”. Also, in experiment [2] (10 nM HF), the “time to maximum eIF2α phosphorylation” value was not above 2 h and the “time until which ATF4 protein continued to accumulate” value came out at 4 h. Moreover, in experiment [2] (10 nM HF, 4 hours), the “ATF4 expression in differentiated and naïve T cells” value is reported as “induced ATF4 expression in all differentiated T cells, but not in naïve T cells”; the “eIF2α phosphorylation in resting naïve T cells and ThN, Th1, Th2, iTreg, Th17 conditions” value is listed as “induced eIF2α phosphorylation”. For the same molecule, the “AAR-associated genes (Asns, Gpt2, eIF4Ebp1) by qPCR” value in experiment [2] (10 nM HF, within 4 hours of T cell activation) is given as “induced”. In experiment [2] (10 nM halofuginone, 1 mM amino acid), the “effect of added proline on HF-induced eIF2alpha phosphorylation” value is “blocked by added proline”. Further, in experiment [2] (10 nM, TCR activation 4 hours), the “eif2alpha Ser51 phosphorylation in wild type and GCN2−/− T cells” value was “leads to phosphorylation of Ser51 of eif2alpha only in wild type cells and not in GCN2^−/− cells”. In addition, in experiment [2] (4 hours post TCR activation), the “concentration at which eIF2α phosphorylation plateaued” value fell in the range of 5 to 10 nM, the “concentration giving detectable eIF2α phosphorylation” value is listed as 2.5 nM, the “concentration with highest ATF4 expression levels” value was 5 to 10 nM and the “concentrations at which ATF4 expression was reduced” value lay within 20 to 40 nM. The “eIF2α phosphorylation and ATF4 expression” value in experiment [2] (setting [3]) is listed as “inducing eIF2α phosphorylation”.
